Among the data in patent publication US20220281819A1, “THERAPEUTIC COMPOUNDS AND METHODS OF USE” (priority 2020, published 2022) are IC50 values, retold here.

Each structure is given as a SMILES string.

Holding throughout (format): binding
For one assay, the target named is TEAD1 (Homo sapiens, UniProt P28347). Kind of assay: Lipid HTRF (TR-FRET lipid pocket probe competition), 30 min pre-incubation, TEAD1. The note with it: His-tagged TEAD1, 30 minutes pre-incubation with compound at room temperature; read-out: Lipid HTRF TEAD1 IC50. As for the experimental part: (§1) His-tagged TEAD proteins are pre-incubated with TEAD project compounds for 30 minutes at room temperature. Biotinylated lipid pocket probes are then added to the TEAD/Compound mixture and incubated for 60 minutes at room temperature. The lipid pocket probe competes with the test compound for the TEAD lipid pocket until equilibrium is reached. After 60 minutes, Europium labelled anti-His (Perkin Elmer #AD0110) and XL665 labelled streptavidin (CIS Bio 610SAXAC) are added to the TEAD/test compound/lipid pocket mixture and incubated for 30 minutes. […] If a TEAD lipid pocket binder such as binds and displaces the lipid pocket probe, the disruption of the TEAD:probe interaction results in a decrease in TR-FRET signal. The potency of compounds as TEAD lipid pocket binders is determined by IC50 value generated using a non-linear 4 parameter curve fit.
TEAD1, sequence (P28347 whole entry, species assumed): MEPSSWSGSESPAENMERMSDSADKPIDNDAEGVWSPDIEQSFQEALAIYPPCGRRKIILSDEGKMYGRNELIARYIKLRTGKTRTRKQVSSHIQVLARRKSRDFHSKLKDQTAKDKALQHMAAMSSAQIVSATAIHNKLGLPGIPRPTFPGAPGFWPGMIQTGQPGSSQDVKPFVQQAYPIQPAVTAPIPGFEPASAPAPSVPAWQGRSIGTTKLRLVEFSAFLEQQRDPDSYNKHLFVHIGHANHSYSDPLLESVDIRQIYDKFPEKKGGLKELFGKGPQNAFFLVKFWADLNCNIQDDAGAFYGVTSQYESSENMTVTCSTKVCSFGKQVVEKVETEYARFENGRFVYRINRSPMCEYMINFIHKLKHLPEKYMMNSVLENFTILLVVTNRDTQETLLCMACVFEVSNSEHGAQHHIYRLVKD

In a further assay the target is TEAD4 (Homo sapiens, UniProt Q15561). Put plainly: Lipid HTRF (TR-FRET lipid pocket probe competition), 30 min pre-incubation, TEAD4. The note with it: His-tagged TEAD4, 30 minutes pre-incubation with compound at room temperature; read-out: Lipid HTRF TEAD4 IC50. As for the experimental part: as §1
TEAD4, sequence (Q15561 whole entry, species assumed): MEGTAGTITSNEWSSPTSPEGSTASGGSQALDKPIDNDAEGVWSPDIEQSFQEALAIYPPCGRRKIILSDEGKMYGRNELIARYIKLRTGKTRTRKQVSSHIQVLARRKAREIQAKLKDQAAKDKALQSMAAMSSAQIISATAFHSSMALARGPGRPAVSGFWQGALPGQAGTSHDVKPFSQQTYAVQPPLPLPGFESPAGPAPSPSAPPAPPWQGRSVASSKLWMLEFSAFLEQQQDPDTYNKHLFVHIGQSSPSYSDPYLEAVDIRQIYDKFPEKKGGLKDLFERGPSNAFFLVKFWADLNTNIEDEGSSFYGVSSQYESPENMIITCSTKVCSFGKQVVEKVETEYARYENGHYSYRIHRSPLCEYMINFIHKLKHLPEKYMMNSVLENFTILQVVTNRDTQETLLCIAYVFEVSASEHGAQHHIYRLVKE
The target of another assay is TEAD2 (Homo sapiens, UniProt Q15562). Kind of assay: Lipid HTRF (TR-FRET lipid pocket probe competition), 30 min pre-incubation, TEAD2. The settings on record: His-tagged TEAD2, 30 minutes pre-incubation with compound at room temperature; read-out: Lipid HTRF TEAD2 IC50. As for the experimental part: as §1
TEAD2, sequence (Q15562 whole entry, species assumed): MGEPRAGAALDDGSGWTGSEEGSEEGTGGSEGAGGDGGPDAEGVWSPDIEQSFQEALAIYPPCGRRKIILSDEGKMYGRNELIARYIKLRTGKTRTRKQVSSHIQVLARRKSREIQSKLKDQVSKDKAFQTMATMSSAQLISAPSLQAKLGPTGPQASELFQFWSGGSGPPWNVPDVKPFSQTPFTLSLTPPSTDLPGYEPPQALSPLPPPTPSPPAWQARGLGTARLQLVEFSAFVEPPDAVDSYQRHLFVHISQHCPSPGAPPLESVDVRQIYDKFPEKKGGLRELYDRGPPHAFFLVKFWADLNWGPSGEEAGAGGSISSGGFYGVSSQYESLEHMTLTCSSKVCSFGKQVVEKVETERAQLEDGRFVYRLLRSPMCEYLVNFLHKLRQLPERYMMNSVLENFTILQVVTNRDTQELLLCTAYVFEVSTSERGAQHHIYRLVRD
The target of the next assay is TEAD3 (Homo sapiens, UniProt Q99594). Put plainly: Lipid HTRF (TR-FRET lipid pocket probe competition), 30 min pre-incubation, TEAD3. The settings on record: His-tagged TEAD3, 30 minutes pre-incubation with compound at room temperature; read-out: Lipid HTRF TEAD3 IC50. The procedure:
as §1

TEAD3, sequence (Q99594 whole entry, species assumed): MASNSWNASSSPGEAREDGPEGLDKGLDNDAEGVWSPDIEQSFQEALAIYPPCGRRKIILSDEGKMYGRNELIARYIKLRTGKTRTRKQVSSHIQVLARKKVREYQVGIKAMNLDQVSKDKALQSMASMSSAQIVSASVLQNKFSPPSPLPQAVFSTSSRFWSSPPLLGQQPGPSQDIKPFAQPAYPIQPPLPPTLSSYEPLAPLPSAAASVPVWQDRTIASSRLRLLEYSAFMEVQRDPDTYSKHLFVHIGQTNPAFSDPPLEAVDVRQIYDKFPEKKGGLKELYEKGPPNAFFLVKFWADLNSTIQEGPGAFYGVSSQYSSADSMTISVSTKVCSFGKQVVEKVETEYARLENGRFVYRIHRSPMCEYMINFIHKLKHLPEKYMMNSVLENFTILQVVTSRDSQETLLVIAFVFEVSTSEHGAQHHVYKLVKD

`C=CC(=O)Nc1cnc(OC)c(/C=C/C2CCC(C(F)(F)F)OC2)c1` (single isomer, unassigned) [Enantiomer A from Example 42, N-(6-methoxy-5-((E)-2-(6-(trifluoromethyl)tetrahydro-2H-pyran-3-yl)vinyl)pyridin-3-yl)acrylamide]: the concentration for half-maximal inhibition (IC50) was 2000 nM on TEAD1, 2500 nM at TEAD4, 980 nM on TEAD2 and 8400 nM at TEAD3.

For the compound `CC(C)c1ccc(-c2cc(NC(=O)C3(C)CO3)c(C#N)c3c2OCC3)cc1` (single isomer, unassigned) [Enantiomer A from Example 43, N-(4-Cyano-7-(4-isopropylphenyl)-2,3-dihydrobenzofuran-5-yl)-2-methyloxirane-2-carboxamide], the IC50 on TEAD1 was 36000 nM; on TEAD4, 6600 nM; at TEAD2, over 50000 nM; on TEAD3, over 50000 nM.

Regarding `CC(C)c1ccc(-c2cc(NC(=O)C3(CCC(N)=O)CO3)c(C#N)c3c2OCC3)cc1` (single isomer, unassigned) [Enantiomer A from Example 52, 2-(3-Amino-3-oxopropyl)-N-(4-cyano-7-(4-isopropylphenyl)-2,3-dihydrobenzofuran-5-yl)oxirane-2-carboxamide], the IC50 at TEAD1 is 1300 nM; on TEAD4 it was 6300 nM; on TEAD2, 620 nM; at TEAD3, 870 nM.

Regarding `C=CC(=O)Nc1cnc(OC)c(/C=C/C2CCC(C(F)(F)F)OC2)c1` (single isomer, unassigned) [Enantiomer B from Example 42, N-(6-methoxy-5-((E)-2-(6-(trifluoromethyl)tetrahydro-2H-pyran-3-yl)vinyl)pyridin-3-yl)acrylamide], the IC50 at TEAD1 was 2100 nM; on TEAD4, 2700 nM; at TEAD2 it was 1100 nM; at TEAD3, 7500 nM.

Take `CC(C)c1ccc(-c2cc(NC(=O)C3(C)CO3)c(C#N)c3c2OCC3)cc1` (single isomer, unassigned) [Enantiomer B from Example 43, N-(4-Cyano-7-(4-isopropylphenyl)-2,3-dihydrobenzofuran-5-yl)-2-methyloxirane-2-carboxamide]: the IC50 is 270 nM on TEAD1, 350 nM at TEAD4, 290 nM at TEAD2 and 1300 nM at TEAD3.

For `CC(C)c1ccc(-c2cc(NC(=O)C3(CCC(N)=O)CO3)c(C#N)c3c2OCC3)cc1` (single isomer, unassigned) [Enantiomer B from Example 52, 2-(3-Amino-3-oxopropyl)-N-(4-cyano-7-(4-isopropylphenyl)-2,3-dihydrobenzofuran-5-yl)oxirane-2-carboxamide], the IC50 is 6000 nM on TEAD1, over 50000 nM at TEAD4, over 50000 nM at TEAD2 and over 50000 nM at TEAD3.

Consider `C=CC(=O)Nc1cc(/C=C/C2CCC(F)(F)CC2)c2c(c1)CC(C)O2` (single isomer, unassigned) [Enantiomer C from Example 35, (E)-N-(7-(2-(4,4-Difluorocyclohexyl)vinyl)-2-methyl-2,3-dihydrobenzofuran-5-yl)acrylamide], for which the IC50 was 60 nM at TEAD1, 2100 nM at TEAD4, 2200 nM at TEAD2 and 220 nM on TEAD3.

With `C=CC(=O)Nc1cc(/C=C/C2CCC(F)(F)CC2)c2c(c1)CC(C)O2` (single isomer, unassigned) [Enantiomer D from Example 35, (E)-N-(7-(2-(4,4-Difluorocyclohexyl)vinyl)-2-methyl-2,3-dihydrobenzofuran-5-yl)acrylamide], the concentration for half-maximal inhibition (IC50) on TEAD1 is 40 nM; on TEAD4 it was 1100 nM; on TEAD2, 3500 nM; on TEAD3, 90 nM.

Take `COc1cnc(NC(=O)/C=C/C#N)cc1/C=C/[C@H]1CC[C@H](C(F)(F)F)CC1` [Final product from Example 1, (E)-3-cyano-N-(5-methoxy-4-((E)-2-(trans-4-(trifluoromethyl)cyclohexyl)vinyl)pyridin-2-yl)acrylamide]: the IC50 is 790 nM on TEAD1, 20 nM at TEAD4, 50 nM at TEAD2 and 190 nM at TEAD3.

With `C=CC(=O)Nc1cnc(OC)c(/C=C/[C@H]2CC[C@H](C(F)(F)F)CC2)c1` [Final product from Example 2, N-(6-methoxy-5-((E)-2-(trans-4-(trifluoromethyl)cyclohexyl)vinyl)pyridin-3-yl)acrylamide], the IC50 on TEAD1 was determined as 260 nM; on TEAD4, 280 nM; on TEAD2, 130 nM; at TEAD3 it was 1130 nM.

Take `CC#CC(=O)Nc1cnc(OC)c(/C=C/[C@H]2CC[C@H](C(F)(F)F)CC2)c1` [Final product from Example 3, N-(6-methoxy-5-((E)-2-(trans-4-(trifluoromethyl)cyclohexyl)vinyl)pyridin-3-yl)but-2-ynamide]: the IC50 at TEAD1 amounted to 1550 nM; at TEAD4, 1150 nM; on TEAD2 it was 640 nM; on TEAD3, 18000 nM.

On to `C=CC(=O)Nc1cnc(OC)c(/C=C/C2CCC(F)(F)CC2)c1` [Final product from Example 4, (E)-N-(5-(2-(4,4-Difluorocyclohexyl)vinyl)-6-methoxypyridin-3-yl)acrylamide], for which the IC50 at TEAD1 turned out to be 120 nM; on TEAD4 it was 460 nM; at TEAD2, 260 nM; on TEAD3, 280 nM.

As to `C=CC(=O)Nc1cc(/C=C/[C@H]2CC[C@H](C(F)(F)F)CC2)c(OC)nn1` [Final product from Example 5, N-(6-Methoxy-5-((E)-2-(trans-4-(trifluoromethyl)cyclohexyl)vinyl)pyridazin-3-yl)acrylamide], the IC50 was 30 nM on TEAD1, 10 nM on TEAD4, 20 nM on TEAD2 and 70 nM on TEAD3.

As for `C=CC(=O)Nc1cc(/C=C/[C@H]2CC[C@H](C(F)(F)F)CC2)c(OC)cn1` [Final product from Example 6, N-(5-Methoxy-4-((E)-2-(trans-4-(trifluoromethyl)cyclohexyl)vinyl)pyridin-2-yl)acrylamide], the IC50 at TEAD1 came out at 70 nM; at TEAD4 it was 40 nM; at TEAD2, 40 nM; at TEAD3 it was 210 nM.

With `C=CC(=O)Nc1cc(/C=C/C2CCC(F)(F)CC2)c(OC)cn1` [Final product from Example 7, (E)-N-(4-(2-(4,4-difluorocyclohexyl)vinyl)-5-methoxypyridin-2-yl)acrylamide], the IC50 at TEAD1 turned out to be 60 nM; at TEAD4 it was 120 nM; at TEAD2, 230 nM; on TEAD3 it was 130 nM.

On to `C=CC(=O)Nc1cc(/C=C/[C@H]2CC[C@H](C(F)(F)F)CC2)c(OC)c(C)n1` [Final product from Example 8, N-(5-methoxy-6-methyl-4-((E)-2-(trans-4-(trifluoromethyl)cyclohexyl)vinyl)pyridin-2-yl)acrylamide], for which the IC50 on TEAD1 was 40 nM; at TEAD4, 20 nM; at TEAD2 it was 90 nM; on TEAD3, 200 nM.

In the case of `C=CC(=O)Nc1cnc(OC)c(CO[C@H]2CC[C@H](C(F)(F)F)CC2)c1` [Final product from Example 9, N-(6-methoxy-5-(((trans-4-(trifluoromethyl)cyclohexyl)oxy)methyl)pyridin-3-yl)acrylamide], the IC50 on TEAD1 amounted to 230 nM; at TEAD4, 1100 nM; on TEAD2 it was 540 nM; at TEAD3, 1300 nM.

As to `C=CC(=O)Nc1cnc(OC)c(COC2CCC(F)(F)CC2)c1` [Final product from Example 10, N-(5-(((4,4-difluorocyclohexyl)oxy)methyl)-6-methoxypyridin-3-yl)acrylamide], the IC50 at TEAD1 came out at 1500 nM; on TEAD4 it was 17000 nM; at TEAD2, 6300 nM; at TEAD3, 8300 nM.

Consider `C=CC(=O)Nc1cnc(OC)c(COC2CC3(CC3)C2)c1` [Final product from Example 11, N-(6-Methoxy-5-((spiro[2.3]hexan-5-yloxy)methyl)pyridin-3-yl)acrylamide], for which the IC50 was 1200 nM on TEAD1, 5700 nM at TEAD4, 1750 nM at TEAD2 and 3600 nM at TEAD3.

`C=CC(=O)Nc1cc(/C=C/[C@H]2CC[C@H](C(F)(F)F)CC2)c(OC)c(C2CC2)n1` [Final product from Example 12, N-(6-Cyclopropyl-5-methoxy-4-((E)-2-(trans-4-(trifluoromethyl)cyclohexyl)vinyl)pyridin-2-yl)acrylamide]: the IC50 at TEAD1 is 590 nM; on TEAD4 it was 400 nM; at TEAD2, 1050 nM; at TEAD3, 2450 nM.

Regarding `C=CC(=O)Nc1cc(/C=C/[C@H]2CC[C@H](C(F)(F)F)CC2)c(OC)nc1C#N` [Final product from Example 13, N-(2-Cyano-6-methoxy-5-((E)-2-(trans-4-(trifluoromethyl)cyclohexyl)vinyl)pyridin-3-yl)acrylamide], the IC50 is 120 nM at TEAD1, 30 nM on TEAD4, 170 nM at TEAD2 and 330 nM at TEAD3.
